27 molecules from patent US8012985B2, “Compounds with antiparasitic activity and medicines containing same” (Centre National de la Recherche Scientifique (C.N.R.S.), priority 2002, dated 2011) can be followed below.

One data set has as its system P. falciparum. Put plainly: Antimalarial activity in vitro against P. falciparum (Desjardins test, [3H] hypoxanthine incorporation). The note with it: growth in vitro of P. falciparum. Format: cell-based. From the text: FIG. 1 represents the antimalarial activity of compound 6.0 as a function of the drug concentration, according to Desjardins' test, (Desjardins R. E. et al., Antimicrob. Agents Chemother. 1979, 16, 710-718).
(§1) A. Antimalarial Activity In Vitro Against P. Falciparum and In Vivo in Mice Infected with P. Vinckei
(§2) Tables 4 and 5 hereafter show the results of the IC50 values in μM and of ED50 (mg/kg) obtained with compounds of the invention.
(§3) The IC50 is the concentration which inhibits 50% of the growth in vitro of P. falciparum (the IC50 measurements were determined according to the method of Desjardins in which the incorporation of [^3H] hypoxanthine in the nucleic acids serves as a cell viability index) (FIG. 1), the ED50 is the effective dose for inhibiting 50% of the growth in vivo of P. vinckei according to a 4-day suppression test.

In another data set the test system is P. vinckei. The data set is described as follows: Antimalarial activity in vivo in mice infected with P. vinckei, 4-day suppression test. The note with it: for ED50: Plasmodium vinckei, 96 h. As to the method: as §1, §2, §3
TI corresponds to the therapeutic index, TI=LD50 (semi chronic)/ED50; ip: intraperitoneal administration; po: per os.

In the next data set the test system is Babesia divergens. The data set is described as follows: Antibabesia activity in vitro against Babesia divergens. Format: cell-based. As to the method: (§4) The products 6.0, 22.0, and 2.0 were also evaluated in vitro for their activities against Babesia divergens and B. canis.
In a further data set the test system is B. canis. The data set is described as follows: Antibabesia activity in vitro against B. canis. The class given is cell-based. As to the method: as §4
On the set-up of data set [1]: species or system mice. The following applies: mouse, in vivo. As to the method:
The results are given hereafter of the pharmacokinetic parameters after administration by intra-peritoneal or oral route in mice for compound 6.0.
For determination of the serum level, bio-tests were used ex vivo: briefly, the medicament is administered to the animal, then blood samples are repeatedly taken. The sera are decomplemented for 30 minutes at 56° C. The active metabolite content is then determined by incubation of different concentrations (dichotomous dilution) of each serum, in the presence of suspensions of erythrocytes infected with P. falciparum, according to the method of DESJARDINS with [^3H] hypoxanthine.
The results are expressed in IS50, which corresponds to the percentage of serum (containing an active metabolite) capable of inhibiting 50% of the growth of P. falciparum.
This value is then converted into serum concentration (usually expressed in ng/ml), by testing the active compound directly (without passing via the animal), on the same suspension infected with P. falciparum and by determining its IC50 value (in ng/ml) [serum count ═IC50] (in ng/ml)×100/SI50 (in %)].
The results are expressed in log (serum count of medicaments), as a function of time, which allows the evaluation of the half-time for the distribution to the serum compartment t1/2(d); the half-time for the elimination of the serum compartment (t1/2(e)); of C0, corresponding to the serum count extrapolated to the origin in the elimination phase; of AUC (which indicates the quantity of drug circulating in the bloodstream); and the relative bio-availability in the administration method by oral route, versus the method by intraperitoneal route [AUC (po)/AUC (ip)] which signifies the degree of absorption by oral route.

The mark [2] stands for this setting: ip, tested after 2 administrations of the compound per day for 4 days.
[3] abbreviates: po, tested after 2 administrations of the compound per day for 4 days.

Counter-ions that a name gives are not always drawn. Like-named read-outs stand apart in the source and are kept apart here. Marks after values point to notes of the source that are not given here.

Consider “1,12-bis(N,N′-methoxyacetamidinyl)dodecane [Compound 20.2]”, for which the IC50 in the data set with P. falciparum came out at 4.35 µM. Moreover, the “ED50 (mg/Kg) P. vinckei” value with P. vinckei (ip, 4-day suppression test) is reported as “ip = 10 mg/Kg”; in the data set with P. vinckei (po, 4-day suppression test), “po = 110 mg/Kg”.
As for “1,12-bis[N,N′-(benzyloxycarbonyl)amidinyl]dodecane [Compound 1.5]”, in the data set with P. falciparum, inhibition was half-maximal at 0.4 µM (IC50).
Same read-out and setting: to “1,12-bis[N,N′-(isobutyloxycarbonyl)amidinyl]dodecane [Compound 1.4]” belongs 0.5 µM; to `CC1(C)CN=C(NCCCCCCCCCCCCNC2=NCCC2)NC1` [25.0, 2 TFA], 0.0019 µM.
`CCOC(=O)NC(=N)CCCCCCCCCCCCC(=N)NC(=O)OCC` [Compound 1.2, 1,12-bis[N,N′-(ethyloxycarbonyl)amidinyl]dodecane] had an IC50 in the data set with P. falciparum of 0.3 µM. In the data set on P. vinckei (ip, 4-day suppression test), the “ED50 (mg/Kg) P. vinckei” value is “ip 33 mg/Kg”.
As for `NC(CCCCCCCCCCCCC(N)=NO)=NO` [Compound 1.15, 1,12-bis(N,N′-hydroxyamidinyl)dodecane], in the data set on P. falciparum, the IC50 was found to be 3.5 µM. Besides, the “ED50 (mg/Kg) P. vinckei” value in the data set with P. vinckei (po, 4-day suppression test) is listed as “po = 120 mg/Kg”.
`CON=C(N)CCCCCCCCCCCCC(N)=NOC` [Compound 1.16, 1,12-bis(N,N′-methoxyamidinyl)dodecane] came in with an IC50 in the data set on P. falciparum of 6.8 µM.
Regarding `CCOC(=O)ON=C(N)CCCCCCCCCCCCC(N)=NOC(=O)OCC` [Compound 1.17, 1,12-bis(N,N′-ethoxycarbonyloxyamidinyl)dodecane], half-maximal inhibition in the data set with P. falciparum (IC50) required 1.2 µM.
The same measure, in the same setting: then `COC(=O)ON=C(N)CCCCCCCCCCCCC(N)=NOC(=O)OC` [Compound 1.18, 1,12-bis(N,N′-methoxycarbonyloxyamidinyl)dodecane], with 1.1 µM; and `NC(CCCCCCCCCCCCC(N)=NOC(=O)Oc1ccccc1)=NOC(=O)Oc1ccccc1` [Compound 1.19, 1,12-bis(N,N′-phenoxycarbonyloxyamidinyl)dodecane], with 3.6 µM; and `CC(=O)ON=C(N)CCCCCCCCCCCCC(N)=NOC(C)=O` [Compound 1.22, 1,12-bis(N,N′-acetoxyamidinyl)dodecane], with 1.4 µM.
In the data set with P. falciparum, `NC(CCCCCCCCCCCCC(N)=NOC(=O)c1ccccc1)=NOC(=O)c1ccccc1` [Compound 1.23, 1,12-bis(N,N′-benzoyloxyamidinyl)dodecane] yielded an IC50 of 1.1 µM.
For `CCNC(=O)ON=C(N)CCCCCCCCCCCCC(N)=NOC(=O)NCC` [Compound 1.24, 1,12-bis(N,N′-ethylcarbamoyloxyamidinyl)dodecane], in the data set on P. falciparum, 0.2 µM corresponded to half-maximal inhibition (IC50). Besides, in the data set with P. vinckei (po, 4-day suppression test), the “ED50 (mg/Kg) P. vinckei” value is “po = 90 mg/Kg”.
On to `O=c1[nH]c(CCCCCCCCCCCCc2noc(=O)[nH]2)no1` [Compound 1.27, 1,12-bis[(1.2,4-oxadiazol-5(4H)-one)-3-yl]dodecane], for which, in the data set on P. falciparum, the IC50 came out at 9.2 µM.
`O=S1NC(CCCCCCCCCCCCC2=NOS(=O)N2)=NO1` (stereo not drawn) [Compound 1.28, 1,12-bis[(1.2,3,5-oxathiadiazol-2(3H)-oxide)-4-yl]dodecane] yielded an IC50 in the data set with P. falciparum of 0.2 µM.
In the case of `O=c1[nH]c(CCCCCCCCCCCCc2nsc(=O)[nH]2)ns1` [Compound 1.30, 1,12-bis[(1.2,4-thiadiazol-5(4H)-one)-3-yl]dodecane], the IC50 with P. falciparum was 0.02 µM. Moreover, the “ED50 (mg/Kg) P. vinckei” value with P. vinckei (ip, 4-day suppression test) is reported as “ip = 20 mg/Kg”.
Regarding `N=C(CCCCCCCCCCCCC(=N)N1CCCC1)N1CCCC1` [Compound 2.0, 2 HCl, 1,14-di(pyrrolidin-1-yl)tetradecane-1,14-diimine], the IC50 with Babesia divergens and in the data set on B. canis was under 0.05 µM in each case.
As to `N=C(CCCCCCCCCCCCC(=N)N1CCCCC1)N1CCCCC1` [Compound 3.0, 1,14-di(piperidin-1-yl)tetradecane-1,14-diimine], the IC50 in the data set with P. falciparum (Plasmodium falciparum) amounted to 0.0049 µM. This lies in the single-digit nanomolar range.
In the case of `C(CCCCCCC1=NCCN1)CCCCCC1=NCCN1` [Compound 6.0, 1,12-bis(imidazolin-2-yl)dodecane], in the data set with P. falciparum, half-maximal inhibition (IC50) required 0.002 µM. Also, the results for the “ED50 (mg/Kg) P. vinckei” value in the data set with P. vinckei (setting [2]) and with P. vinckei (setting [3]) were “ip = 34* mg/Kg” and “po = 62* mg/Kg”, respectively.
On the same counts, the results for `O=C(OCc1ccccc1)N1CCN=C1CCCCCCCCCCCCC1=NCCN1C(=O)OCc1ccccc1` [Compound 6.5, 1,12-bis[N,N′-(benzyloxycarbonyl)imidazolin-2-yl]dodecane] are 12 µM, “ip < 20* mg/Kg” and “po ≈ 100* mg/Kg”.
`O=C(Oc1ccc(F)cc1)N1CCN=C1CCCCCCCCCCCCC1=NCCN1C(=O)Oc1ccc(F)cc1` [Compound 6.8, 1,12-bis[N,N′-(4-fluorophenylyloxycarbonyl)imidazolin-2-yl]dodecane] gave an IC50 in the data set on P. falciparum of 69.5 µM.
On the same count and under the same terms, then `CC(C)(C)OC(=O)N=C(NCCCCCCCCCCCCNC(=NC(=O)OC(C)(C)C)NC(=O)OC(C)(C)C)NC(=O)OC(C)(C)C` [Compound 12.2, 1,12-bis(N,N′-di-tert-butyloxycarbonylguanidino)dodecane], with 1.9 µM.
`CC(=N)NCCCCCCCCCCCCNC(C)=N` [Compound 20.0, 1,12-bis(N,N′-acetamidinyl)dodecane] displayed an IC50 with P. falciparum of 0.002 µM. Also, the “ED50 (mg/Kg) P. vinckei” value with P. vinckei (setting [2]) is recorded as “ip = 2.3* mg/Kg”.
`CS(=O)(=O)OCC(=N)NCCCCCCCCCCCCNC(=N)COS(C)(=O)=O` [Compound 20.12, 1,12-bis(N,N′-methylsulfonyloxyacetamidinyl)dodecane]: the “ED50 (mg/Kg) P. vinckei” value in the data set with P. vinckei (ip, 4-day suppression test) is “ip = 4.7 mg/Kg”; in the data set with P. vinckei (po, 4-day suppression test) it was “po = 42 mg/Kg”.
`Cc1noc(=O)n1CCCCCCCCCCCCn1c(C)noc1=O` [Compound 20.14, 1,12-bis[N,N′(3-methyl-1,2,4-oxadiazol-5(4H)-one)-3-yl]dodecane]: the IC50 with P. falciparum (Plasmodium falciparum) stood at 7.1 µM. In addition, the ED50 with P. vinckei (ip, 4-day suppression test) is 9 mg/kg; in the data set with P. vinckei (po, 4-day suppression test), 62 mg/kg.
Turning to `C(CCCCCCNC1=NCCC1)CCCCCNC1=NCCC1` [Compound 21.0, 1,12-bis[N,N′-(3,4-dihydro-2H-pyrrol-5-yl)amino]dodecane], the 50% inhibitory concentration (IC50) with P. falciparum was found to be 0.0038 µM. Further, in data set [1] (ip, 15 mg/kg), the C0 came out at 0.024 µg/mL and the t1/2 entry is given as “approximately 35 hours”. Further, in data set [1] (po, 100 mg/kg), the C0 worked out at 0.016 µg/mL and the “apparent t1/2” value stood at 36 h. In addition, in the data set on P. vinckei (setting [2]), the “ED50 (mg/Kg) P. vinckei” value is “ip = 2.8* mg/Kg”. The “ED50 (mg/Kg) P. vinckei” value in the data set with P. vinckei (setting [3]) is on record as “po = 85* mg/Kg”.
In the data set on P. falciparum, `N=C1CCCN1CCCCCCCCCCCCN1CCCC1=N` [Compound 24.0, 1,12-bis[N,N′-(2-iminopyrrolidinyl)]dodecane] registered an IC50 of 0.004 µM. This lies in the single-digit nanomolar range.

One may read the IC50 as the concentration needed to halve the response being measured. As usually defined, the ED50 is the midpoint of the dose-response relation. Lower therefore signals greater potency.
